Test results: patent publication US4230846A, “1,5-Carbamates of fortimicin B and derivatives” (Abbott Laboratories, priority 1979, dated 1980)
Counter-ions that a name gives are not always drawn. Like-named read-outs stand apart in the source and are kept apart here.

What was measured:
[1] = system: E coli 76-2; experiment: In vitro antimicrobial activity, 2-fold agar dilution; assay type: cell-based; settings: Mueller-Hinton agar, 37° C., 24 hours
Procedure: (§1) 21, 1977. The in vitro activity of 2-deoxyfortimicin As set forth in Table I. The in vitro activity of 2-deoxyfortiicin A tetrahydrochloride, fortimicin A disulfate and fortimicin A tetrahydrochloride were determined using a 2-fold agar dilution method using 10 ml per petri plate of Mueller-Hinton agar. The agar was inoculated with one loopful (0.001 ml/loop) of a 1:10 dilution of a 24 hour broth culture of the indicated test organism and incubated at 37° C. for 24 hours.

[2] = system: Psuedo. aeruginosa KY 8516; experiment: as above; assay type: cell-based
Procedure: as §1

## COC1CC(N)C(OC2OC(C(C)N)CCC2N)C(O)C1N(C)C(=O)CN (centres unmarked) [2-deoxyfortimicin A tetrahydrochloride]
[1]; read-out: Minimum inhibitory concentration
  MIC: 3.1 µg/mL
[2]; Psuedo. aeruginosa KY 8516, Mueller-Hinton agar, 37° C., 24 hours, read-out: Minimum inhibitory concentration
  MIC: 50 µg/mL

## COC1C(O)C(N)C(OC2OC(C(C)N)CCC2N)C(O)C1N(C)C(=O)CN (centres unmarked) [Fortimicin A disulfate, fortimicin A disulfate]
[2]; 24 h, read-out: Minimum inhibitory concentration, Psuedo. aeruginosa KY 8516, Mueller-Hinton agar, 37° C.
  MIC: 50 µg/mL

## COC1C(O)C(N)C(OC2OC(C(C)N)CCC2N)C(O)C1N(C)C(=O)CN (centres unmarked) [Fortimicin A tetrahydrochloride, fortimicin A tetrahydrochloride]
[1]
  Minimum inhibitory concentration: 3.1 µg/mL
[2]; Psuedo. aeruginosa KY 8516, Mueller-Hinton agar, 37° C., 24 hours
  Minimum inhibitory concentration: 100 µg/mL
